According to US9738933B2, “RNF41 as a biomarker predicting response to lenalidomide in non-del(5q) MDS” (H. LEE MOFFITT CANCER CENTER AND RESEARCH INSTITUTE, INC., priority 2012, dated 2017):

Tests used:
EpoR [1] = experiment: EpoR stability in UT-7 cells treated with cycloheximide ± LEN, EpoR immunoblot; assay type: cell-based; settings: cycloheximide + 1 μM LEN, CHX alone 56 h
Experimental: UT-7 cells (a cell line established from the bone marrow of a patient with acute megakaryoblastic leukemia) were treated with cycloheximide (CHX)±1 μM LEN for 0, 32, 40, 48, 56, 64, and 72 hours. The samples were then separated by SDS-PAGE, and immunoblotted with EpoR antibodies.

IL3-R = IL3-R (Type 1 receptor) expression in UT-7 cells, immunoblot; assay type: cell-based; settings: LEN 0.1, 1, 10 μM, 1 hour
Experimental: (§1) To examine if the effects of LEN on receptor turnover are restricted to Type 1 cytokine receptors, the effects of LEN on cellular expression of IL3-R (Type 1) and c-Kit (Type 2) were examined. UT-7 cells were treated with increasing concentrations of LEN (0 μM (control), 0.1 μM, 1 μM, and 10 μM) for 1 hour. Samples were separated by SDS-PAGE and immunoblotted with IL3-R (Type 1) and c-Kit (Type 2) antibodies.

c-Kit = c-Kit (Type 2 receptor) expression in UT-7 cells, immunoblot; assay type: cell-based; settings: LEN 0.1, 1, 10 μM, 1 hour
Experimental: as §1

EpoR/RNF41 = target: T1, EpoR/RNF41 (Homo sapiens, UniProt Q9H4P4); experiment: EpoR/RNF41 association in UT-7 cells, EpoR immunoprecipitation and RNF41 immunoblot; assay type: cell-based; settings: LEN 0.1, 1, 10 μM, 1 hour
T1 construct: endogenous in cells; host or cells: UT-7
T1 sequence (Q9H4P4 1-317): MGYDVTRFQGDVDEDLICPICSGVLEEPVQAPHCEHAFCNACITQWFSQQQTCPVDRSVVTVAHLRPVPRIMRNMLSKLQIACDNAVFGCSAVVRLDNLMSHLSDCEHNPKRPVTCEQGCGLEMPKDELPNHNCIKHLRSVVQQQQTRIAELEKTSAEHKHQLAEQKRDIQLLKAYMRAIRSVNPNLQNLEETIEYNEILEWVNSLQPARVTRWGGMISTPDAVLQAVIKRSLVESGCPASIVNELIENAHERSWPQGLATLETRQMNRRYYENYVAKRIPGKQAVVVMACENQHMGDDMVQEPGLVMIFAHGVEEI
T1 sequence (P19235 25-508 partner): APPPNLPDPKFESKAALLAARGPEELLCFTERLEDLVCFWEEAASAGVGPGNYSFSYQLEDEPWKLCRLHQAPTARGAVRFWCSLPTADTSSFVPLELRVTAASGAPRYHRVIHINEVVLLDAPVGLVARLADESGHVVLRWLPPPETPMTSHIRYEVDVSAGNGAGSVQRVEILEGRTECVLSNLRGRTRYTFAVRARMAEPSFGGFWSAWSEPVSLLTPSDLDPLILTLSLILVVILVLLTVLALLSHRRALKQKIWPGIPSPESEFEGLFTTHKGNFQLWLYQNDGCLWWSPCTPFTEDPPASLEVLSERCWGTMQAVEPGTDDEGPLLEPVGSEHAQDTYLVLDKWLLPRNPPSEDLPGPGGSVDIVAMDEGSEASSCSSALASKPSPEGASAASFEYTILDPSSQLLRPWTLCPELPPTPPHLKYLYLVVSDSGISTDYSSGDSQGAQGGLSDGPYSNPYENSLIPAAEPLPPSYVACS
Experimental: To determine if LEN alters EpoR/RNF41 interaction, protein association after LEN treatment was examined. UT-7 cells were treated with increasing concentrations of LEN (0 μM (control), 0.1 μM, 1 μM, and 10 μM) for 1 hour. The cells were then lysed, and the cell lysates were immunoprecipitated for EpoR, and immunoblotted for EpoR and RNF41.

RNF41 = target: T2, RNF41 (Homo sapiens, UniProt Q9H4P4); experiment: RNF41 auto-ubiquitination in bortezomib pre-treated UT-7 cells, RNF41 immunoprecipitation and ubiquitin immunoblot; assay type: cell-based; settings: bortezomib 20 nM 24 hours, then LEN 0.1, 1, 10 μM, 1 hour
T2 construct: assessed through immunoprecipitation of RNF41 and immunoblotting for ubiquitin; endogenous in cells; host or cells: UT-7
T2 sequence (Q9H4P4 1-317): T1 sequence (Q9H4P4 1-317)
Experimental: (§2) To investigate the effects of LEN on RNF41 function, protein specific ubiquitination after proteasomal inhibition with bortezomib followed by LEN treatment was investigated. UT-7 cells were pre-treated with bortezomib (20 nM), a proteasome inhibitor, for 24 hours. The cells were subsequently treated with increasing concentrations of LEN (0 μM (control), 0.1 μM, 1 μM, and 10 μM) for 1 hour. The effect of LEN treatment on RNF41 was assessed through immunoprecipitation of RNF41 and immunoblotting for ubiquitin. To verify the observed effects, total protein levels in whole cell lysates were also assessed for RNF41 expression. In order to determine EpoR ubiquitination changes upon LEN treatment, immunoprecipitation of EpoR was carried out followed by immunoblotting for ubiquitin.

EpoR [2] = experiment: EpoR ubiquitination in bortezomib pre-treated UT-7 cells, EpoR immunoprecipitation and ubiquitin immunoblot; assay type: cell-based; settings: bortezomib 20 nM 24 hours, then LEN 0.1, 1, 10 μM, 1 hour
Experimental: as §2

EpoR [3] = experiment: LEN-induced EpoR expression in HEK293T cells transfected with EpoR and/or RNF41, immunoblot densitometry; assay type: cell-based; settings: EpoR+pMet7-RNF41 vs EpoR HEK293T cells, LEN 0.1, 1, 10 μM, 1 hour
Experimental: FIG. 1 is a bar graph plotting the ratio of EpoR/Actin in EpoR and EpoR+pMet7-RNF41 HEK293T cells treated with increasing concentrations of LEN (0 μM (control), 0.1 μM, 1 μM, and 10 μM).
To confirm that RNF41 is the principal target of LEN responsible for EpoR stabilization, HEK293T cells were transfected with EpoR and/or RNF41 expression vectors using the calcium phosphate method. Transfected cells were treated with increasing concentrations of LEN (0 μM (control), 0.1 μM, 1 μM, and 10 μM) for 1 hour, separated by SDS-PAGE, and immunoblotted with EpoR antibodies. Steady state EpoR expression was lower in EpoR/RNF41 cells compared with cells transfected with EpoR alone.

non-del(5q) MDS = settings: MDS patients with non-del(5q); cited from earlier work
JAK2-associated EpoR = settings: Basiorka, et al. Blood 2011; cited from earlier work

## Nc1cccc2c1CN(C1CCC(=O)NC1=O)C2=O (stereo not drawn) [LEN, Lenalidomide]
EpoR [1]
  cellular EpoR T1/2: > 72 h
IL3-R
  cellular expression of IL3-R: Upregulation of IL3-R occurred in a concentration-dependent manner
c-Kit
  cellular expression of c-Kit: remained unchanged
EpoR/RNF41
  binding of RNF41 to EpoR: Increased binding of RNF41 to EpoR occurs in a concentration-dependent manner
RNF41
  RNF41 auto-ubiquitination: inhibited RNF41 auto-ubiquitination in a concentration-dependent fashion
EpoR [2]
  EpoR ubiquitination: corresponding decrease in EpoR ubiquitination
EpoR [3]
  LEN induced EpoR expression (EpoR/Actin) with RNF41 overexpression: blocked LEN induced EpoR expression by approximately two-fold
non-del(5q) MDS
  patients likely to be responsive to treatment: approximately 26%
JAK2-associated EpoR
  cellular expression of JAK2-associated EpoR: induces cellular expression of JAK2-associated EpoR in a concentration-dependent manner
